“And” between values parts separate entries of the source, which are not always exact repeats. Equal entries are not always repeated.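 Method: 48-hour compound exposure of cells in 96-well plates, five concentrations, linear interpolation of endpoints. GI50 = concentration required for 50% inhibition of growth. TGI: concentration producing complete growth inhibition.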
Legend:
Assay in all cases: growth of human tumour cells (NCI), 48 h
[1] = test system: SNB-75 CNS
[2] = test system: A498 renal
[3] = test system: OVCAR-8 ovarian
[4] = test system: HT29 colon
[5] = test system: SN12C renal
[6] = test system: RXF 393 renal
[7] = test system: SK-MEL-5 melanoma
[8] = test system: TK-10 renal
[9] = test system: SR leukemia
[10] = test system: NCI/ADR-RES ovarian

Structure (SMILES): COC(=O)C1CCC(C)CC1=O (configuration not stated)
- TGI [1]: > 100 µM
- TGI [2]: > 100 µM
- TGI [3]: > 100 µM
- TGI [4]: > 100 µM
- TGI [5]: > 100 µM
- TGI [6]: > 100 µM
- TGI [7]: > 100 µM
- TGI [8]: > 100 µM

Structure (SMILES): O=C([O-])c1ccc([I+]c2ccccc2)cc1
- TGI [1]: > 100 µM
- TGI [2]: > 100 µM
- TGI [3]: > 100 µM
- TGI [9]: > 100 µM
- TGI [4]: > 100 µM
- TGI [5]: > 100 µM
- TGI [6]: > 100 µM
- TGI [7]: > 100 µM
- TGI [8]: > 100 µM

Structure (SMILES): NC1=NC(c2ccccc2Cl)c2c(n[nH]c2N)N1 (configuration not stated)
- GI50 [1]: 48 µM
- TGI [1]: > 100 µM
- GI50 [2]: 17.5 µM
- TGI [2]: > 100 µM
- GI50 [3]: 45.6 µM
- TGI [3]: > 100 µM
- GI50 [10]: 30.4 µM
- TGI [10]: > 100 µM
- GI50 [5]: 8.35 µM
- TGI [5]: > 100 µM
- GI50 [6]: 13.7 µM
- TGI [6]: 97.6 µM
- GI50 [7]: 29.2 µM
- TGI [7]: > 100 µM
- GI50 [8]: > 100 µM
- TGI [8]: > 100 µM

Structure (SMILES): COS(=O)c1cc(Cl)cc(Cl)c1OC(=O)CSSCC(=O)Oc1c(Cl)cc(Cl)cc1S(=O)OC (configuration not stated)
- TGI [1]: 80.1 µM
- TGI [2]: 54.1 µM
- TGI [3]: 61.9 µM
- TGI [4]: 96.9 µM
- TGI [5]: 37.3 µM
- TGI [6]: 43.7 µM
- TGI [7]: 32.4 µM
- TGI [8]: 84 µM

Structure (SMILES): CCOC(=O)C1=C(C)N(NC(N)=O)C2(N)N(NC(N)=O)C(C)=C(C(=O)OCC)C12C#N (configuration not stated)
- TGI [1]: > 100 µM
- TGI [2]: > 100 µM
- TGI [3]: > 100 µM
- TGI [9]: > 100 µM
- TGI [4]: > 100 µM
- TGI [5]: > 100 µM
- TGI [7]: > 100 µM

Structure (SMILES): Cc1cc(OC2OC(CO)C(O)C(O)C2O)ccc1O (configuration not stated)
- TGI [1]: > 100 µM
- TGI [2]: > 100 µM
- TGI [3]: > 100 µM
- TGI [4]: > 100 µM
- TGI [10]: > 100 µM
- TGI [5]: > 100 µM
- TGI [6]: > 100 µM
- TGI [7]: > 100 µM
- TGI [8]: > 100 µM

Structure (SMILES): COc1ccc(/C=C/C(=O)c2c(-c3ccccc3)nn(C)c(=O)c2N2CCCCC2)cc1
- TGI [3]: > 100 µM
- TGI [4]: 35.9 µM
- TGI [5]: 64.2 µM
- TGI [6]: 28 µM
- TGI [7]: 29.1 µM
- TGI [8]: > 100 µM

Structure (SMILES): OC1=CN=C(c2ccccc2)Oc2ccccc21
- TGI [1]: > 100 µM
- TGI [2]: > 100 µM
- TGI [3]: > 100 µM
- TGI [4]: > 100 µM
- TGI [5]: > 100 µM
- TGI [6]: > 100 µM
- TGI [7]: > 100 µM
- TGI [8]: > 100 µM

Structure (SMILES): Cc1ccc2ccc3c4ccccc4ccc3c2c1
- GI50 [1]: 39.3 µM
- TGI [1]: > 100 µM
- GI50 [2]: 23.1 µM
- TGI [2]: 63.6 µM
- GI50 [3]: 32.9 µM
- TGI [3]: > 100 µM
- GI50 [4]: 22.9 µM
- TGI [4]: 77.7 µM
- GI50 [10]: 30.7 µM
- TGI [10]: > 100 µM
- GI50 [5]: 27 µM
- TGI [5]: > 100 µM
- GI50 [6]: 20.1 µM
- TGI [6]: 46.8 µM
- GI50 [7]: 27.6 µM
- TGI [7]: 92.9 µM
- GI50 [8]: 28.5 µM
- TGI [8]: 67.8 µM

Structure (SMILES): C1CN2CCO[SiH](O1)OCC2
- TGI [1]: > 100 µM
- TGI [2]: > 100 µM
- TGI [3]: > 100 µM
- TGI [9]: > 100 µM
- TGI [4]: > 100 µM
- TGI [5]: > 100 µM
- TGI [6]: > 100 µM
- TGI [7]: > 100 µM
- TGI [8]: > 100 µM

Structure (SMILES): CNC(=O)OCc1nc(SSc2nc(COC(=O)NC)c(COC(=O)NC)n2C)n(C)c1COC(=O)NC
- TGI [1]: > 100 µM
- TGI [2]: > 100 µM
- TGI [3]: > 100 µM
- TGI [9]: > 100 µM
- TGI [4]: > 100 µM
- TGI [5]: > 100 µM
- TGI [6]: > 100 µM
- TGI [7]: > 100 µM
- TGI [8]: > 100 µM

Structure (SMILES): CCCCCCCCCCCCCCCC(=O)OCC1OC(n2cc(F)c(=O)[nH]c2=O)C(NC(=O)OCc2ccccc2)C(O)C1O (configuration not stated)
- TGI [1]: 37.5 µM
- TGI [2]: 35.5 µM
- TGI [3]: 37.2 µM
- TGI [4]: 36.2 µM
- TGI [5]: 38 µM
- TGI [7]: 36.1 µM
- TGI [8]: 43 µM

Structure (SMILES): CCc1c(OC(C)=O)c2c(NC3OC(COC(C)=O)C(OC(C)=O)C(OC(C)=O)C3OC(C)=O)nc(SC)nc2oc1=O (configuration not stated)
- TGI [1]: > 100 µM
- TGI [2]: > 100 µM
- TGI [3]: > 100 µM
- TGI [4]: > 100 µM
- TGI [5]: > 100 µM
- TGI [6]: > 100 µM
- TGI [7]: > 100 µM
- TGI [8]: > 100 µM

Structure (SMILES): [O-][n+]1c2cccc(O)c2[n+]([O-])c2cccc(O)c21
- TGI [1]: > 100 µM
- TGI [2]: > 100 µM
- TGI [3]: > 100 µM
- TGI [4]: > 100 µM
- TGI [10]: > 100 µM
- TGI [6]: > 100 µM
- TGI [7]: > 100 µM
- TGI [8]: > 100 µM

Structure (SMILES): C[n+]1cn(CC(=O)c2ccccc2)c(C(N)=O)c1N
- TGI [1]: > 100 µM
- TGI [2]: > 100 µM
- TGI [3]: > 100 µM
- TGI [9]: > 100 µM
- TGI [4]: > 100 µM
- TGI [5]: > 100 µM
- TGI [7]: > 100 µM
- TGI [8]: > 100 µM

Structure (SMILES): O=C1c2cccc3c(N4CCOCC4)ccc(c23)C(=O)N1CCN1CCN(CCCCCN2CCN(CCN3C(=O)c4cccc5c(N6CCOCC6)ccc(c45)C3=O)CC2)CC1
- GI50 [1]: > 100 µM
- TGI [1]: > 100 µM
- GI50 [2]: > 100 µM
- TGI [2]: > 100 µM
- GI50 [3]: 91 µM
- TGI [3]: > 100 µM
- GI50 [4]: 58 µM
- TGI [4]: > 100 µM
- GI50 [10]: > 100 µM
- TGI [10]: > 100 µM
- GI50 [5]: 57.4 µM
- TGI [5]: > 100 µM
- GI50 [6]: 59.8 µM
- TGI [6]: > 100 µM
- GI50 [7]: 57.2 µM
- TGI [7]: > 100 µM
- GI50 [8]: > 100 µM
- TGI [8]: > 100 µM

Structure (SMILES): N#CC(C(=O)Nc1ccccc1)C1=C(Cl)C(=O)c2ccccc2C1=O (configuration not stated)
- TGI [2]: > 100 µM
- TGI [3]: 46.1 µM
- TGI [4]: 67.5 µM
- TGI [5]: 29.1 µM
- TGI [6]: 31.4 µM
- TGI [7]: 30.2 µM
- TGI [8]: 36.7 µM

Structure (SMILES): CCOC(=O)C[C@@]12CCCN[C@]1(C)CCc1ccccc12
- TGI [1]: > 100 µM
- TGI [2]: > 100 µM
- TGI [3]: > 100 µM
- TGI [9]: > 100 µM
- TGI [4]: > 100 µM
- TGI [5]: > 100 µM
- TGI [6]: > 100 µM
- TGI [7]: > 100 µM
- TGI [8]: > 100 µM

Structure (SMILES): CCCCCCCCCCCCCC(=O)O[C@H]1CC[C@H](NC(=O)[C@H](OC)[C@H](O)[C@@H](O)[C@H](O)/C=C/C(C)C)C(=O)N(C)C1
- GI50 [1]: 0.0217 µM
- TGI [1]: 15 µM and > 23.8 µM
- GI50 [2]: 0.453 µM
- TGI [2]: > 23.8 µM
- GI50 [3]: 0.00238 µM
- TGI [3]: 15 µM and 3.59 µM
- TGI [9]: 2.46 µM
- GI50 [4]: 0.00238 µM
- TGI [4]: 15 µM and 3.07 µM
- GI50 [5]: 0.00238 µM
- TGI [5]: 15 µM and 4.84 µM
- GI50 [6]: 0.00238 µM
- GI50 [7]: 0.00347 µM
- TGI [7]: 0.337 µM and 0.0726 µM
- GI50 [8]: 0.05 µM
- TGI [8]: 15 µM and > 23.8 µM

Structure (SMILES): Cc1ccccc1Nc1cc(O)c2c(=O)cc(-c3ccccc3)oc2c1
- GI50 [3]: 3.61 µM
- TGI [3]: > 100 µM
- GI50 [9]: 0.395 µM
- TGI [9]: > 100 µM
- GI50 [4]: 3.25 µM
- TGI [4]: > 100 µM
- GI50 [10]: 1.28 µM
- TGI [10]: > 100 µM
- GI50 [5]: 4.05 µM
- TGI [5]: > 100 µM
- GI50 [6]: 2.45 µM
- TGI [6]: 9.56 µM

Structure (SMILES): Cc1ccc(-n2c3nc(=O)n(C)c(=O)c-3nc3ccccc32)c(C)c1
- TGI [1]: 26.7 µM
- TGI [3]: 32.9 µM
- TGI [4]: 11.7 µM
- TGI [5]: 22.8 µM
- TGI [6]: 34.5 µM
- TGI [7]: 18.5 µM
- TGI [8]: 27.2 µM

Reference: PubChem BioAssay (NCI)
